Measured values published in patent US20030190378A1, “Extract of processed Panax genus plant, the preparation method thereof, and compositions containing the same” (priority 2002, published 2003).

Assays:
[1] = system: ICR mouse; experiment: Passive cutaneous anaphylaxis test (Evans blue leakage); type: in vivo; settings: for anti-allergic effect in words, passive cutaneous anaphylaxis: Tables 5 and 6
Description: 50 μl of diluted solution with physiological saline containing 10 μg of mouse IgE serum against dinitrophenol-human serum album (DNP-HSA, Sigma, USA), was injected to the back of ICR mouse (Dae Han Co., Ltd) anesthetized with ether to be passive sensitization. After 48 hours, 0.2 ml of physiological saline solution containing 0.2 mg of DNP-HSA and 1.6 mg of Evans blue was injected to the mouse's tail vein and the mouse was sacrificed by cervical dislocation to death and then the amount of Evans blue dye leaked to mouse's back was measured as follows. Certain circular area of mouse's back distant from the area where IGE injected about 1 cm^2 far, was cut and put into a test tube. 4 ml of mixture solution of 0.6M phosphoric acid and acetone with a ratio of 5:13 was added to the tube, stirred and filtered. The amount of dye was measured by colorimetric analysis at 620 nm.

[2] = system: RBL-2H3 cell line; experiment: Anti-allergic effect using IgE-sensitized, DNP-BSA-activated RBL-2H3 cell line (p-NAG substrate readout); type: cell-based, rat; settings: for Anti-allergic effect in RBL cell IC50 / IC50: Table 4, saponin fractions and isolated saponins; for anti-allergic effect in words, allergy inhibition test using RBL-2H3 cell line: Tables 3 and 4; for IC50: Rattus norvegicus
Description: In order to confirm the anti-allergic effect of the extracts in the present invention, the experiment was performed by the procedure described in the literature (Inagaki. et al., Int, Arch. Allergy Appl. Immunol., 87, pp254-259, 1988).
RBL-2H3 cell line (rat basophil cell line, Korean Cell Line Bank, Cat. No.22256) were incubated with DMEM (Dulbecco's modified Eagle's) medium (Sigma No. D-5648, USA) containing 10% FBS (Fetal Bovine Serum), L-glutamine for 2 hours at 37° C. by using humidified 5% CO2 incubator and attached cells were floated by trypsin-EDTA solution, separated and recovered to use in further experiment. Each RBL-2H3 cells were transferred to 24 well plate to be adjusted to 5×10^5 cells/well, treated with 0.5 μg of mouse monoclonal IgE and incubated for 12 hours to be sensitization. The cell was washed with 0.5 ml of siraganian buffer solution (pH 7.2) composed of 119 mM NaCl, 5 mM KCl, 0.4 mM MgCl2, 25 mM PIPES and 40 mM NaOH. 0.16 ml of siraganian buffer solution containing 5.5 mM glucose, 1 mM CaCl2 and 0.1% BSA, was added thereto again and incubated for 10 minutes at 37° C. Thereafter, 40 μl of test sample solution containing the extract in the Comparative Example 1, 2, 3 and Example 1, 2, 3 were added thereto. After 20 minutes, the cells were activated by adding 0.02 ml of antigen, 1 μg/ml of DNP-BSA, for 10 minutes at 37° C., centrifuged at the speed of 2000 rpm for 10 minutes and 0.025 ml of the supernatant was transferred to 96 well plate. 0.025 ml of 1 mM p-NAG substrate solution prepared by dissolving p-nitrophenyl-N-acetyl-β-D-glucosaminide with 0.1M citrate buffer solution adjusted to pH 4.5, was added thereto, incubated for 60 minutes at 37° C. and 0.2 ml of 0.1M Na2CO3/NaHCO3 was added thereto to quench the reaction to measure their optical density at 405 nm by ELISA analyzer.

| Compound | Passive cutaneous anaphylaxis Inhibitory rate (%) Abdominal administration ([1]; Table 6, 25 mg/kg abdominal) [%] | Anti-allergic effect in RBL cell IC50 [2] [µg/mL] | also measured |
| --- | --- | --- | --- |
| CC(C)=CCC=C(C)[C@H]1CC[C@]2(C)[C@@H]1[C@H](O)C[C@@H]1[C@@]3(C)CC[C@H](O)C(C)(C)[C@@H]3[C@@H](O[C@@H]3O[C@H](CO)[C@@H](O)[C@H](O)[C@H]3O[C@@H]3O[C@@H](C)[C@H](O)[C@@H](O)[C@H]3O)C[C@]12C (stereo in doubt) [Ginsenoside F4] | 63 | – | – |
| CC(C)=CCC[C@@](C)(O)[C@H]1CC[C@]2(C)[C@@H]1[C@H](O)C[C@@H]1[C@@]3(C)CC[C@H](O[C@@H]4O[C@H](CO)[C@@H](O)[C@H](O)[C@H]4O)C(C)(C)[C@@H]3CC[C@]12C [20(R)-ginsenoside Rh2] | – | >0.2 | – |
| CC(C)=CCC[C@@](C)(O)[C@H]1CC[C@]2(C)[C@@H]1[C@H](O)C[C@@H]1[C@@]3(C)CC[C@H](O)C(C)(C)[C@@H]3CC[C@]12C [20(R)-protopanaxadiol] | – | >0.2 | – |
| CC(C)=CCC[C@](C)(O)[C@H]1CC[C@]2(C)[C@@H]1[C@H](O)C[C@@H]1[C@@]3(C)CC[C@H](O[C@@H]4O[C@H](CO)[C@@H](O)[C@H](O)[C@H]4O[C@@H]4O[C@H](CO)[C@@H](O)[C@H](O)[C@H]4O)C(C)(C)[C@@H]3CC[C@]12C [20(S)-ginsenoside Rg3] | – | >0.2 | – |
| CC(C)=CCC[C@](C)(O)[C@H]1CC[C@]2(C)[C@@H]1[C@H](O)C[C@@H]1[C@@]3(C)CC[C@H](O[C@@H]4O[C@H](CO)[C@@H](O)[C@H](O)[C@H]4O)C(C)(C)[C@@H]3CC[C@]12C [20(S)-ginsenoside Rh2] | – | 0.03 | – |
| CC(C)=CCC[C@](C)(O)[C@H]1CC[C@]2(C)[C@@H]1[C@H](O)C[C@@H]1[C@@]3(C)CC[C@H](O)C(C)(C)[C@@H]3CC[C@]12C [20(S)-protopanaxadiol] | – | >0.2 | – |
| O=C([O-])c1cc(=O)c2c(OCC(O)COc3cccc4oc(C(=O)[O-])cc(=O)c34)cccc2o1.[Na+].[Na+] [DSCG, Disodium Cromoglycate, reference compound] | – | 0.498 | Passive cutaneous anaphylaxis Inhibitory rate (%) ([1]; Table 5, 100 mg/kg): 37%; Passive cutaneous anaphylaxis Inhibitory rate (%) Oral administration ([1]; Table 6, 100 mg/kg oral): 37% |
| CC(C)=CC/C=C(\C)[C@H]1CC[C@]2(C)[C@@H]1[C@H](O)C[C@@H]1[C@@]3(C)CC[C@H](O[C@@H]4O[C@H](CO)[C@@H](O)[C@H](O)[C@H]4O[C@@H]4O[C@H](CO)[C@@H](O)[C@H](O)[C@H]4O)C(C)(C)[C@@H]3CC[C@]12C [Gginsenoside Rg5, ginsenoside Rg5] | 45 | – | – |
| CC(C)=CCC[C@](C)(O[C@@H]1O[C@H](CO)[C@@H](O)[C@H](O)[C@H]1O)[C@H]1CC[C@]2(C)[C@@H]1[C@H](O)C[C@@H]1[C@@]3(C)CC[C@H](O)C(C)(C)[C@@H]3[C@@H](O)C[C@]12C [Ginsenoside F1] | 69 | 0.13 | anti-allergic effect in words, allergy inhibition test using RBL-2H3 cell line [2]: more potent inhibition effect than that of DSCG; anti-allergic effect in words, passive cutaneous anaphylaxis [1]: more potent inhibitory effects than that of DSCG |
| CC(C)=CCC[C@](C)(O[C@@H]1O[C@H](CO[C@@H]2O[C@H](CO)[C@@H](O)[C@H](O)[C@H]2O)[C@@H](O)[C@H](O)[C@H]1O)[C@H]1CC[C@]2(C)[C@@H]1[C@H](O)C[C@@H]1[C@@]3(C)CC[C@H](O[C@@H]4O[C@H](CO)[C@@H](O)[C@H](O)[C@H]4O[C@@H]4O[C@H](CO)[C@@H](O)[C@H](O)[C@H]4O)C(C)(C)[C@@H]3CC[C@]12C [Ginsenoside Rb1] | – | >0.2 | Passive cutaneous anaphylaxis Inhibitory rate (%) Abdominal administration ([1]; Table 6, 50 mg/kg abdominal): 17% |
| CC(C)=CCC[C@](C)(O[C@@H]1O[C@H](CO[C@@H]2OC[C@H](O)[C@H](O)[C@H]2O)[C@@H](O)[C@H](O)[C@H]1O)[C@H]1CC[C@]2(C)[C@@H]1[C@H](O)C[C@@H]1[C@@]3(C)CC[C@H](O[C@@H]4O[C@H](CO)[C@@H](O)[C@H](O)[C@H]4O[C@@H]4O[C@H](CO)[C@@H](O)[C@H](O)[C@H]4O)C(C)(C)[C@@H]3CC[C@]12C [Ginsenoside Rb2] | 12 | >0.2 | – |
| CC(C)=CCC[C@](C)(O[C@@H]1O[C@H](CO)[C@@H](O)[C@H](O)[C@H]1O)[C@H]1CC[C@]2(C)[C@@H]1[C@H](O)C[C@@H]1[C@@]3(C)CC[C@H](O)C(C)(C)[C@@H]3[C@@H](O[C@@H]3O[C@H](CO)[C@@H](O)[C@H](O)[C@H]3O[C@@H]3O[C@@H](C)[C@H](O)[C@@H](O)[C@H]3O)C[C@]12C [Ginsenoside Re] | 15 | – | IC50 [2]: 0.06 µg/mL |
| CC(C)=CCC[C@](C)(O)[C@H]1CC[C@]2(C)[C@@H]1[C@H](O)C[C@@H]1[C@@]3(C)CC[C@H](O)C(C)(C)[C@@H]3[C@@H](O[C@@H]3O[C@H](CO)[C@@H](O)[C@H](O)[C@H]3O[C@@H]3O[C@H](CO)[C@@H](O)[C@H](O)[C@H]3O)C[C@]12C [Ginsenoside Rf] | 40 | – | IC50 [2]: 0.11 µg/mL |
| CC(C)=CCC[C@](C)(O[C@@H]1O[C@H](CO)[C@@H](O)[C@H](O)[C@H]1O)[C@H]1CC[C@]2(C)[C@@H]1[C@H](O)C[C@@H]1[C@@]3(C)CC[C@H](O)C(C)(C)[C@@H]3[C@@H](O[C@@H]3O[C@H](CO)[C@@H](O)[C@H](O)[C@H]3O)C[C@]12C [Ginsenoside Rg1] | 37 | 0.08 | – |
| CC(C)=CCC[C@](C)(O)[C@H]1CC[C@]2(C)[C@@H]1[C@H](O)C[C@@H]1[C@@]3(C)CC[C@H](O[C@@H]4O[C@H](CO)[C@@H](O)[C@H](O)[C@H]4O[C@@H]4O[C@H](CO)[C@@H](O)[C@H](O)[C@H]4O)C(C)(C)[C@@H]3CC[C@]12C [Ginsenoside Rg3] | – | – | Passive cutaneous anaphylaxis Inhibitory rate (%) Abdominal administration ([1]; Table 6, abdominal, dosage cell empty): 47%; Passive cutaneous anaphylaxis Inhibitory rate (%) Oral administration ([1]; Table 6, oral, dosage cell empty): 38% |
| CC(C)=CCC[C@](C)(O)[C@H]1CC[C@]2(C)[C@@H]1[C@H](O)C[C@@H]1[C@@]3(C)CC[C@H](O)C(C)(C)[C@@H]3[C@@H](O[C@@H]3O[C@H](CO)[C@@H](O)[C@H](O)[C@H]3O)C[C@]12C [Ginsenoside Rh1] | 87 | 0.02 | anti-allergic effect in words, allergy inhibition test using RBL-2H3 cell line [2]: more potent inhibition effect than that of DSCG; Passive cutaneous anaphylaxis Inhibitory rate (%) Oral administration ([1]; Table 6, 25 mg/kg oral): 79%; anti-allergic effect in words, passive cutaneous anaphylaxis [1]: more potent inhibitory effects than that of DSCG |
| CC(C)=CCC[C@](C)(O)[C@H]1CC[C@]2(C)[C@@H]1[C@H](O)C[C@@H]1[C@@]3(C)CC[C@H](O[C@@H]4O[C@H](CO)[C@@H](O)[C@H](O)[C@H]4O)C(C)(C)[C@@H]3CC[C@]12C [Ginsenoside Rh2] | 88 | – | anti-allergic effect in words, allergy inhibition test using RBL-2H3 cell line [2]: more potent inhibition effect than that of DSCG; Passive cutaneous anaphylaxis Inhibitory rate (%) Oral administration ([1]; Table 6, 25 mg/kg oral): 36%; anti-allergic effect in words, passive cutaneous anaphylaxis [1]: more potent inhibitory effects than that of DSCG |
| CC(C)=CCC[C@@](C)(O)[C@H]1CC[C@]2(C)[C@@H]1[C@H](O)C[C@@H]1[C@@]3(C)CC[C@H](O)C(C)(C)[C@@H]3CC[C@]12C [protopanaxadiol] | 25 | – | – |
| Δ^20-ginsenoside Rg3 | – | 0.09 | – |
